Results: PubChem BioAssay (NCI)
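Compound exposure: 48 hours, 5 concentrations, 96-well plates. GI50 marks 50% less growth. TGI: concentration producing complete growth inhibition.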

Experiments:
Experiment in all cases: NCI tumour cell line growth inhibition, 48 h
SK-MEL-28 melanoma = tested on: SK-MEL-28 melanoma
MOLT-4 leukemia = tested on: MOLT-4 leukemia
U251 CNS = tested on: U251 CNS
SW-620 colon = tested on: SW-620 colon
786-0 renal = tested on: 786-0 renal
M14 melanoma = tested on: M14 melanoma
NCI-H522 lung = tested on: NCI-H522 lung
MDA-MB-435 = tested on: MDA-MB-435
LOX IMVI melanoma = tested on: LOX IMVI melanoma
SNB-75 CNS = tested on: SNB-75 CNS
RPMI-8226 leukemia = tested on: RPMI-8226 leukemia
SNB-19 CNS = tested on: SNB-19 CNS
IGROV1 ovarian = tested on: IGROV1 ovarian
SF-268 CNS = tested on: SF-268 CNS
UACC-62 melanoma = tested on: UACC-62 melanoma
MDA-MB-468 breast = tested on: MDA-MB-468 breast
MALME-3M melanoma = tested on: MALME-3M melanoma
A498 renal = tested on: A498 renal
CCRF-CEM leukemia = tested on: CCRF-CEM leukemia
K-562 leukemia = tested on: K-562 leukemia
KM12 colon = tested on: KM12 colon
UO-31 renal = tested on: UO-31 renal
OVCAR-5 ovarian = tested on: OVCAR-5 ovarian
HCT-116 colon = tested on: HCT-116 colon
SF-295 CNS = tested on: SF-295 CNS
CAKI-1 renal = tested on: CAKI-1 renal
SN12C renal = tested on: SN12C renal
NCI-H226 lung = tested on: NCI-H226 lung
BT-549 breast = tested on: BT-549 breast
SR leukemia = tested on: SR leukemia
MCF7 breast = tested on: MCF7 breast
T-47D breast = tested on: T-47D breast
HCT-15 colon = tested on: HCT-15 colon
HCC-2998 colon = tested on: HCC-2998 colon
HL-60(TB) leukemia = tested on: HL-60(TB) leukemia
NCI-H460 lung = tested on: NCI-H460 lung
NCI/ADR-RES ovarian = tested on: NCI/ADR-RES ovarian
TK-10 renal = tested on: TK-10 renal
ACHN renal = tested on: ACHN renal
EKVX NSCLC = tested on: EKVX NSCLC
SK-MEL-2 melanoma = tested on: SK-MEL-2 melanoma
OVCAR-4 ovarian = tested on: OVCAR-4 ovarian
HOP-62 NSCLC = tested on: HOP-62 NSCLC
SK-MEL-5 melanoma = tested on: SK-MEL-5 melanoma
OVCAR-3 ovarian = tested on: OVCAR-3 ovarian
RXF 393 renal = tested on: RXF 393 renal
HT29 colon = tested on: HT29 colon
NCI-H23 lung = tested on: NCI-H23 lung
SK-OV-3 ovarian = tested on: SK-OV-3 ovarian
SF-539 CNS = tested on: SF-539 CNS
PC-3 prostate = tested on: PC-3 prostate
COLO 205 colon = tested on: COLO 205 colon
MDA-MB-231 breast = tested on: MDA-MB-231 breast
A549 NSCLC = tested on: A549 NSCLC
UACC-257 melanoma = tested on: UACC-257 melanoma
HOP-92 NSCLC = tested on: HOP-92 NSCLC
DU-145 prostate = tested on: DU-145 prostate
HS 578T breast = tested on: HS 578T breast
OVCAR-8 ovarian = tested on: OVCAR-8 ovarian

Work on `Nc1nc2cc(-c3ccc4ncnc(NCc5ccccc5)c4c3)ccc2o1` yielded a GI50 (SK-MEL-28 melanoma) of 12.4 µM, a TGI (SK-MEL-28 melanoma) of 24.8 µM and a GI50 (MOLT-4 leukemia) of 4.43 µM. The TGI (MOLT-4 leukemia) was 19 µM, the GI50 (U251 CNS) was 10.4 µM and the TGI (U251 CNS) was 32.6 µM. The GI50 (SW-620 colon) was 9.63 µM, the TGI (SW-620 colon) was 31.1 µM and the GI50 (786-0 renal) was 13 µM. For the same compound, the TGI (786-0 renal) was 26.3 µM, the GI50 (M14 melanoma) was 12.4 µM and the TGI (M14 melanoma) was 35.6 µM. It also gave a GI50 (NCI-H522 lung) of 8.72 µM, a TGI (NCI-H522 lung) of 38.4 µM and a GI50 (MDA-MB-435) of 11 µM. The TGI (MDA-MB-435) was 24.6 µM, the GI50 (LOX IMVI melanoma) was 3.07 µM and the TGI (LOX IMVI melanoma) was 15.9 µM. It also gave a GI50 (SNB-75 CNS) of 2.15 µM, a TGI (SNB-75 CNS) of 5.24 µM and a GI50 (RPMI-8226 leukemia) of 3.83 µM. The TGI (RPMI-8226 leukemia) was 22.3 µM, the GI50 (SNB-19 CNS) was 10.8 µM and the TGI (SNB-19 CNS) was 25.4 µM. For the same compound, the GI50 (IGROV1 ovarian) was 1.98 µM, the TGI (IGROV1 ovarian) was 5.5 µM and the GI50 (SF-268 CNS) was 10.9 µM. For the same compound, the TGI (SF-268 CNS) was 43.4 µM, the GI50 (UACC-62 melanoma) was 14.7 µM and the TGI (UACC-62 melanoma) was 29.6 µM. For the same compound, the GI50 (MDA-MB-468 breast) was 1.81 µM, the TGI (MDA-MB-468 breast) was 7.67 µM and the GI50 (MALME-3M melanoma) was 3.2 µM. The TGI (MALME-3M melanoma) was 13.3 µM, the GI50 (A498 renal) was 3.55 µM and the TGI (A498 renal) was 18.1 µM. The GI50 (CCRF-CEM leukemia) was 6.08 µM, the TGI (CCRF-CEM leukemia) was 30.2 µM and the GI50 (K-562 leukemia) was 11.2 µM. The TGI (K-562 leukemia) was 23.2 µM, the GI50 (KM12 colon) was 6.77 µM and the TGI (KM12 colon) was 25.6 µM. For the same compound, the GI50 (UO-31 renal) was 4.01 µM, the TGI (UO-31 renal) was 18.3 µM and the GI50 (OVCAR-5 ovarian) was 4.03 µM. It also gave a TGI (OVCAR-5 ovarian) of 16.9 µM, a GI50 (HCT-116 colon) of 3.89 µM and a TGI (HCT-116 colon) of 17.5 µM. For the same compound, the GI50 (SF-295 CNS) was 14.1 µM, the TGI (SF-295 CNS) was 35 µM and the GI50 (CAKI-1 renal) was 7.7 µM. It also gave a TGI (CAKI-1 renal) of 21 µM, a GI50 (SN12C renal) of 5.14 µM and a TGI (SN12C renal) of 18.3 µM. For the same compound, the GI50 (NCI-H226 lung) was 10.1 µM, the TGI (NCI-H226 lung) was 39.4 µM and the GI50 (BT-549 breast) was 4.31 µM. For the same compound, the TGI (BT-549 breast) was 16.7 µM, the GI50 (SR leukemia) was 10.3 µM and the TGI (SR leukemia) was 27.6 µM. It also gave a GI50 (MCF7 breast) of 2.47 µM, a TGI (MCF7 breast) of 11.1 µM and a GI50 (T-47D breast) of 10.4 µM. It also gave a TGI (T-47D breast) of 35.3 µM, a GI50 (HCT-15 colon) of 6.45 µM and a TGI (HCT-15 colon) of 27.3 µM. For the same compound, the GI50 (HCC-2998 colon) was 9.11 µM, the TGI (HCC-2998 colon) was 23 µM and the GI50 (HL-60(TB) leukemia) was 10.4 µM. For the same compound, the TGI (HL-60(TB) leukemia) was 24 µM, the GI50 (NCI-H460 lung) was 6.48 µM and the TGI (NCI-H460 lung) was 27.7 µM. The GI50 (NCI/ADR-RES ovarian) was 11 µM, the TGI (NCI/ADR-RES ovarian) was 49.5 µM and the GI50 (TK-10 renal) was 2.98 µM. It also gave a TGI (TK-10 renal) of 16.1 µM, a GI50 (ACHN renal) of 5.27 µM and a TGI (ACHN renal) of 18.2 µM. The GI50 (EKVX NSCLC) was 3.47 µM, the TGI (EKVX NSCLC) was 20.2 µM and the GI50 (SK-MEL-2 melanoma) was 14.7 µM. The TGI (SK-MEL-2 melanoma) was 30.6 µM, the GI50 (OVCAR-4 ovarian) was 7 µM and the TGI (OVCAR-4 ovarian) was 28.1 µM. It also gave a GI50 (HOP-62 NSCLC) of 10.7 µM, a TGI (HOP-62 NSCLC) of 34.3 µM and a GI50 (SK-MEL-5 melanoma) of 12.2 µM. For the same compound, the TGI (SK-MEL-5 melanoma) was 28.1 µM, the GI50 (OVCAR-3 ovarian) was 3.49 µM and the TGI (OVCAR-3 ovarian) was 21.6 µM. For the same compound, the GI50 (RXF 393 renal) was 3.62 µM, the TGI (RXF 393 renal) was 16.3 µM and the GI50 (HT29 colon) was 7.45 µM. The TGI (HT29 colon) was 58.3 µM, the GI50 (NCI-H23 lung) was 10.9 µM and the TGI (NCI-H23 lung) was 35.6 µM. The GI50 (SK-OV-3 ovarian) was 3.26 µM, the TGI (SK-OV-3 ovarian) was 12.1 µM and the GI50 (SF-539 CNS) was 4.08 µM. It also gave a TGI (SF-539 CNS) of 14.9 µM, a GI50 (PC-3 prostate) of 12.7 µM and a TGI (PC-3 prostate) of 31.9 µM. It also gave a GI50 (COLO 205 colon) of 14.4 µM, a TGI (COLO 205 colon) of 30 µM and a GI50 (MDA-MB-231 breast) of 7.96 µM. The TGI (MDA-MB-231 breast) was 21.4 µM, the GI50 (A549 NSCLC) was 4.16 µM and the TGI (A549 NSCLC) was 29.4 µM. It also gave a GI50 (UACC-257 melanoma) of 14.4 µM, a TGI (UACC-257 melanoma) of 32.2 µM and a GI50 (HOP-92 NSCLC) of 2.11 µM. For the same compound, the TGI (HOP-92 NSCLC) was 7.5 µM, the GI50 (DU-145 prostate) was 4.7 µM and the TGI (DU-145 prostate) was 20.5 µM. The GI50 (HS 578T breast) was 2.41 µM, the TGI (HS 578T breast) was 7.52 µM and the GI50 (OVCAR-8 ovarian) was 3.41 µM. The TGI (OVCAR-8 ovarian) was 17.7 µM.
